Experimental data taken from the supplement of paper PMC10331698.
± gives the standard deviation of the averaged measurements.

What was measured:
Assay in all cases: level (log10 ratio to DMSO vehicle control); higher = higher biomarker level / cell amount than vehicle control
Conditions in all cases: in DMSO
[1] = compound: C=C(C)C(=O)OCC(F)(F)C(F)(F)C(F)(F)C(F)(F)C(F)(F)C(F)(F)C(F)(F)F
Description: (§1)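 BioMAP Diversity Plus panel of 12 human primary cell co-culture systems (3C, 4H, LPS, SAg, BT, BF4T, BE3C, CASM3C, HDF3CGF, KF3CT, MyoF, Mphg). Compounds were added 1 h before stimulation and left for 24 h (MyoF 48 h; BT 72 h for soluble read-outs or 6 d for IgG). Biomarkers were read by ELISA, cytotoxicity by SRB, PBMC viability and proliferation by Alamar Blue. Each well value was divided by the mean of 8 DMSO control wells on the same plate and log10 transformed; duplicate blinded samples were tested at 4 concentrations.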

[2] = compound: O=C(O)CCC(F)(F)C(F)(F)C(F)(F)C(F)(F)C(F)(F)F [2H,2H,3H,3H-Perfluorooctanoic acid]
Description: as §1

[3] = compound: O=S(=O)(O)C(F)(F)C(F)(F)C(F)(F)C(F)(F)F [Perfluorobutanesulfonic acid]
Description: as §1

Test System	level (log10) ([1]; 6700 nM)	level (log10) ([1]; 20000 nM)	level (log10) ([2]; 6700 nM)	level (log10) ([2]; 20000 nM)	level (log10) ([2]; 60000 nM)	level (log10) ([3]; 6700 nM)	level (log10) ([3]; 20000 nM)	level (log10) ([3]; 60000 nM)
lMphg:sIL-10	-0.0725 ± 0.016	-0.121 ± 0.31	-0.073 ± 0.0085	-0.043	-0.216 ± 0.011	0.043 ± 0.099	-0.0475 ± 0.032	0.0065 ± 0.049
3C:CD62E/E-Selectin	0.0095 ± 0.023	0.0075 ± 0.0092	-0.01 ± 0.038	-0.015 ± 0.058	0.006 ± 0.033	-0.0165 ± 0.022	-0.008 ± 0.021	0.0045 ± 0.021
HDF3CGF:Proliferation 72hr	0.019 ± 0.018	0.001 ± 0.038	-0.002 ± 0.054	0.007 ± 0.033	0.023 ± 0.018	-0.0045 ± 0.013	-0.0195 ± 0.015	0.0155 ± 0.05
HDF3CGF:Collagen I	-0.0035 ± 0.0078	0.0375 ± 0.005	0.0065 ± 0.079	-0.004 ± 0.078	0.0195 ± 0.14	0.0175 ± 0.037	-0.003 ± 0.025	0.0345 ± 0.043
BE3C:uPA	-0.008 ± 0.011	-0.004 ± 0.021	0.0025 ± 0.011	-0.009 ± 0.0085	0.0025 ± 0.005	-0.0035 ± 0.0021	-0.007 ± 0.0042	-0.005 ± 0.0099
3C:CCL2/MCP-1	-0.013 ± 0.0042	0.018 ± 0.025	0.0045 ± 0.015	0.006 ± 0.034	0.01 ± 0.016	0.0025 ± 0.05	0.0015 ± 0.021	0.0355 ± 0.043
KF3CT:CXCL9/MIG	0.007 ± 0.0028	0.006 ± 0.0028	-0.004 ± 0.011	0.0025 ± 0.0092	0.0075 ± 0.00071	0.0185 ± 0.029	0.021 ± 0.017	0.0345 ± 0.0078
MyoF:Decorin	-0.011 ± 0.04	0.0175 ± 0.081	-0.0075 ± 0.0021	-0.0065 ± 0.00071	0.019 ± 0.0071	0.0315 ± 0.012	0.03 ± 0.016	0.083 ± 0.013
HDF3CGF:MMP-1	-0.003 ± 0.02	-0.0045 ± 0.026	-0.009 ± 0.023	-0.0385 ± 0.05	-0.0675 ± 0.076	0.0085 ± 0.011	0.002 ± 0.013	-0.0165 ± 0.036
KF3CT:uPA	0.0105 ± 0.0092	0.009 ± 0.0085	-0.008 ± 0.013	-0.0095 ± 0.033	-0.004 ± 0.041	-0.0275 ± 0.029	-0.0215 ± 0.00071	-0.0035 ± 0.00071
CASM3C:Serum Amyloid A	-0.014 ± 0.0028	-0.009 ± 0.0042	-0.0045 ± 0.0078	-0.0195 ± 0.0092	-0.0495 ± 0.028	-0.0575 ± 0.08	-0.0795 ± 0.071	-0.068 ± 0.055
3C:CD141/Thrombomodulin	-0.038 ± 0.0057	-0.0015 ± 0.032	-0.032 ± 0.078	-0.0295 ± 0.022	-0.0405 ± 0.029	-0.0185 ± 0.049	-0.019 ± 0.0085	-0.054 ± 0.0085
BE3C:SRB	-0.0015 ± 0.0021	-0.0025 ± 0.00071	0.003 ± 0.0028	-0.0015 ± 0.005	0.012 ± 0.018	0.001	-0.004 ± 0.0028	-0.003 ± 0.0014
BE3C:MMP-9	0 ± 0.0042	-0.0005 ± 0.0092	-0.0025 ± 0.025	-0.003 ± 0.014	0.0195 ± 0.033	-0.0125 ± 0.016	-0.0205 ± 0.0035	-0.0315 ± 0.0092
HDF3CGF:CXCL11/I-TAC	0.016 ± 0.0071	-0.009 ± 0.023	-0.0455 ± 0.12	-0.084 ± 0.11	-0.0825 ± 0.11	-0.0235 ± 0.00071	0.005 ± 0.0028	-0.005 ± 0.0014
3C:CD106/VCAM-1	-0.0145 ± 0.005	-0.0025 ± 0.018	-0.021 ± 0.0057	-0.0295 ± 0.026	-0.025 ± 0.023	-0.0215 ± 0.015	-0.016 ± 0.025	-0.006 ± 0.013
3C:CD142/Tissue Factor	-0.022 ± 0.058	-0.005 ± 0.051	0.009 ± 0.0028	0.018 ± 0.0071	0.022 ± 0.0085	0.003 ± 0.0028	0.001 ± 0.0071	-0.005 ± 0.038
MyoF:Collagen III	-0.014 ± 0.0014	-0.014 ± 0.0042	-0.021 ± 0.023	-0.026 ± 0.024	-0.0115 ± 0.022	0.02 ± 0.024	0.0265 ± 0.0064	0.0145 ± 0.0064
MyoF:MMP-1	-0.0245 ± 0.0092	0.0025 ± 0.086	-0.017 ± 0.041	-0.044 ± 0.0099	-0.007 ± 0.033	0.0385 ± 0.005	0.065 ± 0.0071	0.0885 ± 0.0035
lMphg:CD62E/E-Selectin	-0.0215 ± 0.0021	-0.021 ± 0.0042	0.0015 ± 0.035	0.0165 ± 0.0064	0.0415 ± 0.00071	0.0405 ± 0.0035	0.041 ± 0.044	0.0215 ± 0.046
CASM3C:CXCL8/IL-8	-0.015 ± 0.018	-0.001 ± 0.016	0.0055 ± 0.018	-0.0055 ± 0.0021	0.0175 ± 0.00071	0.0255 ± 0.049	0.0255 ± 0.025	0.0375 ± 0.025
HDF3CGF:CCL2/MCP-1	-0.0205 ± 0.03	-0.007 ± 0.0042	0.0015 ± 0.029	0.003 ± 0.0085	0.0065 ± 0.0078	-0.0075 ± 0.037	0.0005 ± 0.025	-0.023 ± 0.03
MyoF:CXCL8/IL-8	-0.0215 ± 0.013	0.013 ± 0.014	-0.032 ± 0.0042	-0.0215 ± 0.005	-0.018	0.007 ± 0.042	0.0425 ± 0.021	0.0665 ± 0.0064
KF3CT:MMP-9	0.012 ± 0.03	0.009 ± 0.027	-0.0235 ± 0.021	-0.018 ± 0.02	0.026 ± 0.0057	-0.0115 ± 0.0021	-0.008 ± 0.013	-0.0145 ± 0.005
BE3C:tPA	-0.013 ± 0.0014	0.007	-0.0005 ± 0.005	-0.0035 ± 0.013	0.0265 ± 0.013	0.0155 ± 0.022	-0.0135 ± 0.0078	0 ± 0.025
lMphg:CD69	-0.0135 ± 0.018	-0.004 ± 0.038	-0.032 ± 0.05	-0.0325 ± 0.063	-0.016 ± 0.031	0.0035 ± 0.005	-0.0195 ± 0.005	-0.0525 ± 0.043
lMphg:CD106/VCAM-1	-0.0385 ± 0.0035	-0.0535 ± 0.026	-0.0135 ± 0.0092	-0.022 ± 0.023	-0.011 ± 0.021	-0.004 ± 0.025	-0.013 ± 0.018	-0.0195 ± 0.0078
CASM3C:Proliferation	0.0065 ± 0.033	-0.022 ± 0.018	-0.014 ± 0.045	0.002 ± 0.0014	0.011 ± 0.04	-0.0455 ± 0.044	-0.0405 ± 0.013	-0.019 ± 0.017
BE3C:Keratin 8/18	-0.008 ± 0.017	-0.028 ± 0.027	0.0065 ± 0.0021	-0.015 ± 0.011	-0.004 ± 0.0057	0.003 ± 0.0014	-0.0035 ± 0.00071	-0.0165 ± 0.0078
